Reference: ChEMBL document CHEMBL4052690, “2-Chlorophenyl-substituted benzofuro[3,2-b]pyridines with enhanced topoisomerase inhibitory activity: The role of the chlorine substituent” (Bioorg Med Chem Lett, 2017)
Where a name gives a salt, the structure may show the parent alone.

Experiments:
[1] = target: T1, DNA topoisomerase 1 (Homo sapiens) (UniProt P11387); experiment: Inhibition of human recombinant DNA topoisomerase 1 assessed as reduction in enzyme-mediated relaxation of supercoiled pBR322 plasmid DNA at 100 uM in presence of 0.1% BSA by ethidium bromide staining based gel electrophoresis and UV spectroscopy relative to camptothecin
T1 sequence (whole entry): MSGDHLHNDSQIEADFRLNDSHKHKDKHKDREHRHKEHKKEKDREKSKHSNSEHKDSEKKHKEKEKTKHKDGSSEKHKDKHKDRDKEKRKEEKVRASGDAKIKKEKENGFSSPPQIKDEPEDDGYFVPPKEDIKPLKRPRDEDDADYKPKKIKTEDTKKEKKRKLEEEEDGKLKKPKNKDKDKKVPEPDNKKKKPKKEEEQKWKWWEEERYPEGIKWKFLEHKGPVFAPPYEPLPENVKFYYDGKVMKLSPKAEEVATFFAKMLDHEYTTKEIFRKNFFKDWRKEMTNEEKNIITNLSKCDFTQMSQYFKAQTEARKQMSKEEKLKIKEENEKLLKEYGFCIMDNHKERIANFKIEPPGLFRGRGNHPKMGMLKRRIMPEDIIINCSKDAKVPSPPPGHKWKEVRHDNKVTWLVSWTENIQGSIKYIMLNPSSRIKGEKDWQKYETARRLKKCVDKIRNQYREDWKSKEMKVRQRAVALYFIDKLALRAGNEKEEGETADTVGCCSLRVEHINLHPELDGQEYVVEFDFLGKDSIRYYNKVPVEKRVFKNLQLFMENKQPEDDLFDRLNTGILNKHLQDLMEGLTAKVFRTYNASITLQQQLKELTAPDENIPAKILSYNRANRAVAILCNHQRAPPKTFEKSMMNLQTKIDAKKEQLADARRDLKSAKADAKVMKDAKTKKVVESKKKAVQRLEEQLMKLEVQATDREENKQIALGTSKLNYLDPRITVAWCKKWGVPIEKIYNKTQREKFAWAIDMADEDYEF

Homo sapiens [2] = organism: Homo sapiens; experiment: Inhibition of human recombinant DNA topoisomerase 2 assessed as reduction in enzyme-mediated relaxation of supercoiled pBR322 plasmid DNA at 20 uM in presence of 0.1% BSA by ethidium bromide staining based gel electrophoresis and UV spectroscopy relative to etoposide
HeLa = experiment: Antiproliferative activity against human HeLa cells after 72 hrs by CCK8 assay; assay type: functional, cell-based
Homo sapiens [3] = organism: Homo sapiens; experiment: Inhibition of human recombinant DNA topoisomerase 2 assessed as reduction in enzyme-mediated relaxation of supercoiled pBR322 plasmid DNA at 100 uM in presence of 0.1% BSA by ethidium bromide staining based gel electrophoresis and UV spectroscopy relative to etoposide
HCT-15 = experiment: Antiproliferative activity against human HCT15 cells after 72 hrs by CCK8 assay; assay type: functional, cell-based; settings: HCT-15, 72 h
T47D = experiment: Antiproliferative activity against human T47D cells after 72 hrs by CCK8 assay; assay type: functional, cell-based
[4] = target: T1, DNA topoisomerase 1 (Homo sapiens); experiment: Inhibition of human recombinant DNA topoisomerase 1 assessed as reduction in enzyme-mediated relaxation of supercoiled pBR322 plasmid DNA at 100 uM in presence of 0.1% BSA by ethidium bromide staining based gel electrophoresis and UV spectroscopy
Homo sapiens [5] = organism: Homo sapiens; experiment: Inhibition of human recombinant DNA topoisomerase 2 assessed as reduction in enzyme-mediated relaxation of supercoiled pBR322 plasmid DNA at 20 uM in presence of 0.1% BSA by ethidium bromide staining based gel electrophoresis and UV spectroscopy
Homo sapiens [6] = organism: Homo sapiens; experiment: Inhibition of human recombinant DNA topoisomerase 2 assessed as reduction in enzyme-mediated relaxation of supercoiled pBR322 plasmid DNA at 100 uM in presence of 0.1% BSA by ethidium bromide staining based gel electrophoresis and UV spectroscopy

Clc1ccc(-c2cc(-c3ccccc3)c3oc4ccccc4c3n2)cc1
fold change (FC) [1]: 1.15 | fold change (FC) (Homo sapiens [2]): 0.48 | IC50 (HeLa): > 50 µM | fold change (FC) (Homo sapiens [3]): 1.19 | IC50 (HCT-15): > 50 µM | IC50 (T47D): > 50 µM | inhibition [4]: 100% | inhibition (Homo sapiens [5]): 17.6% | inhibition (Homo sapiens [6]): 78.2%

Clc1cccc(-c2cc(-c3ccsc3)c3oc4ccccc4c3n2)c1
fold change (FC) [1]: 0.81 | fold change (FC) (Homo sapiens [2]): 0.39 | IC50 (HeLa): > 50 µM | fold change (FC) (Homo sapiens [3]): 1.79 | IC50 (HCT-15): 13.5 µM | IC50 (T47D): 13.2 µM | inhibition [4]: 70.2% | inhibition (Homo sapiens [5]): 12.2% | inhibition (Homo sapiens [6]): 93.8%

Clc1cccc(-c2cc(-c3ccco3)c3oc4ccccc4c3n2)c1
fold change (FC) [1]: 1.15 | fold change (FC) (Homo sapiens [2]): 1.51 | IC50 (HeLa): 40.8 µM | fold change (FC) (Homo sapiens [3]): 1.3 | IC50 (HCT-15): > 50 µM | IC50 (T47D): 23.2 µM | inhibition [4]: 100% | inhibition (Homo sapiens [5]): 55.4% | inhibition (Homo sapiens [6]): 85.5%

Clc1ccc(-c2cc(-c3ccccc3Cl)nc3c2oc2ccccc23)o1
fold change (FC) [1]: 1.15 | fold change (FC) (Homo sapiens [2]): 0.94 | IC50 (HeLa): > 50 µM | fold change (FC) (Homo sapiens [3]): 1.64 | IC50 (HCT-15): > 50 µM | IC50 (T47D): > 50 µM | inhibition [4]: 100% | inhibition (Homo sapiens [5]): 29.5% | inhibition (Homo sapiens [6]): 86%

Clc1ccc(-c2cc(-c3ccco3)c3oc4ccccc4c3n2)cc1
fold change (FC) [1]: 1.15 | fold change (FC) (Homo sapiens [2]): 2.2 | IC50 (HeLa): 36.5 µM | fold change (FC) (Homo sapiens [3]): 1.46 | IC50 (HCT-15): > 50 µM | IC50 (T47D): 13.2 µM | inhibition [4]: 100% | inhibition (Homo sapiens [5]): 80.9% | inhibition (Homo sapiens [6]): 96.2%

Clc1ccc(-c2cc(-c3cccs3)c3oc4ccccc4c3n2)cc1
fold change (FC) [1]: 1.15 | fold change (FC) (Homo sapiens [2]): 0.41 | IC50 (HeLa): > 50 µM | fold change (FC) (Homo sapiens [3]): 0.89 | IC50 (HCT-15): > 50 µM | IC50 (T47D): > 50 µM | inhibition [4]: 100% | inhibition (Homo sapiens [5]): 15.1% | inhibition (Homo sapiens [6]): 58.5%

COc1cc([C@@H]2c3cc4c(cc3[C@@H](O[C@@H]3O[C@@H]5CO[C@@H](C)O[C@H]5[C@H](O)[C@H]3O)[C@H]3COC(=O)[C@H]23)OCO4)cc(OC)c1O [ETOPOSIDE]
IC50 (HeLa): 4.12 µM | IC50 (HCT-15): 9.27 µM | inhibition (Homo sapiens [5]): 31.5 to 36.8% | inhibition (Homo sapiens [6]): 52.3 to 66%

Clc1cccc(-c2cc(-c3ccoc3)c3oc4ccccc4c3n2)c1
fold change (FC) [1]: 0.97 | fold change (FC) (Homo sapiens [2]): 1.6 | IC50 (HeLa): 41.1 µM | fold change (FC) (Homo sapiens [3]): 1.65 | IC50 (HCT-15): 17.6 µM | IC50 (T47D): 18.1 µM | inhibition [4]: 84.3% | inhibition (Homo sapiens [5]): 50.4% | inhibition (Homo sapiens [6]): 86.1%

Clc1cccc(-c2cc(-c3cccs3)c3oc4ccccc4c3n2)c1
fold change (FC) [1]: 0.98 | fold change (FC) (Homo sapiens [2]): 0.47 | IC50 (HeLa): > 50 µM | fold change (FC) (Homo sapiens [3]): 1.29 | IC50 (HCT-15): 19.3 µM | IC50 (T47D): 17.2 µM | inhibition [4]: 85.1% | inhibition (Homo sapiens [5]): 17.3% | inhibition (Homo sapiens [6]): 85.3%

Clc1ccccc1-c1cc(-c2ccsc2)c2oc3ccccc3c2n1
fold change (FC) [1]: 1.15 | fold change (FC) (Homo sapiens [2]): 2.33 | IC50 (HeLa): > 50 µM | fold change (FC) (Homo sapiens [3]): 1.52 | IC50 (HCT-15): 10.6 µM | IC50 (T47D): 25.5 µM | inhibition [4]: 100% | inhibition (Homo sapiens [5]): 85.8% | inhibition (Homo sapiens [6]): 100%

COc1cccc2c1C(=O)c1c(O)c3c(c(O)c1C2=O)C[C@@](O)(C(=O)CO)C[C@@H]3O[C@H]1C[C@H](N)[C@H](O)[C@H](C)O1 [DOXORUBICIN HYDROCHLORIDE]
IC50 (HeLa): 2.77 µM | IC50 (HCT-15): 0.94 µM | IC50 (T47D): 1.29 µM

Clc1ccc(-c2cc(-c3ccsc3)c3oc4ccccc4c3n2)cc1
fold change (FC) [1]: 0.92 | fold change (FC) (Homo sapiens [2]): 0.32 | IC50 (HeLa): > 50 µM | fold change (FC) (Homo sapiens [3]): 1.83 | IC50 (HCT-15): > 50 µM | IC50 (T47D): > 50 µM | inhibition [4]: 79.9% | inhibition (Homo sapiens [5]): 10.1% | inhibition (Homo sapiens [6]): 95.7%

Clc1ccc(-c2cc(-c3ccoc3)c3oc4ccccc4c3n2)cc1
fold change (FC) [1]: 0.95 | fold change (FC) (Homo sapiens [2]): 2.61 | IC50 (HeLa): 16.6 µM | fold change (FC) (Homo sapiens [3]): 1.7 | IC50 (HCT-15): 38.6 µM | IC50 (T47D): 18.5 µM | inhibition [4]: 86.5% | inhibition (Homo sapiens [5]): 82.1% | inhibition (Homo sapiens [6]): 88.7%

Clc1ccccc1-c1cc(-c2ccco2)c2oc3ccccc3c2n1
fold change (FC) [1]: 0.99 | fold change (FC) (Homo sapiens [2]): 0.14 | IC50 (HeLa): > 50 µM | fold change (FC) (Homo sapiens [3]): 0.9 | IC50 (HCT-15): 21.7 µM | IC50 (T47D): > 50 µM | inhibition [4]: 86.1% | inhibition (Homo sapiens [5]): 5.1% | inhibition (Homo sapiens [6]): 59.4%

Clc1cccc(-c2cc(-c3ccccc3)c3oc4ccccc4c3n2)c1
fold change (FC) [1]: 0.93 | fold change (FC) (Homo sapiens [2]): 0.4 | IC50 (HeLa): 37.2 µM | fold change (FC) (Homo sapiens [3]): 1.26 | IC50 (HCT-15): > 50 µM | IC50 (T47D): 33.6 µM | inhibition [4]: 80.6% | inhibition (Homo sapiens [5]): 14.8% | inhibition (Homo sapiens [6]): 83%

Clc1cccc(-c2cc(-c3ccc(Cl)o3)c3oc4ccccc4c3n2)c1
fold change (FC) [1]: 1.15 | fold change (FC) (Homo sapiens [2]): 1.13 | IC50 (HeLa): 18.2 µM | fold change (FC) (Homo sapiens [3]): 1.86 | IC50 (HCT-15): 5.47 µM | IC50 (T47D): 7.47 µM | inhibition [4]: 100% | inhibition (Homo sapiens [5]): 35.5% | inhibition (Homo sapiens [6]): 97.3%

Clc1ccccc1-c1cc(-c2cccs2)c2oc3ccccc3c2n1
fold change (FC) [1]: 1.08 | fold change (FC) (Homo sapiens [2]): 0.29 | IC50 (HeLa): 21.7 µM | fold change (FC) (Homo sapiens [3]): 0.97 | IC50 (HCT-15): 16.1 µM | IC50 (T47D): > 50 µM | inhibition [4]: 93.4% | inhibition (Homo sapiens [5]): 10.8% | inhibition (Homo sapiens [6]): 64.1%

CC[C@@]1(O)C(=O)OCc2c1cc1n(c2=O)Cc2cc3ccccc3nc2-1 [CAMPTOTHECIN]
IC50 (HeLa): 2.62 µM | IC50 (T47D): 2.31 µM

Clc1ccccc1-c1cc(-c2ccoc2)c2oc3ccccc3c2n1
fold change (FC) [1]: 0.63 | fold change (FC) (Homo sapiens [2]): 0.46 | IC50 (HeLa): 13.3 µM | fold change (FC) (Homo sapiens [3]): 1.59 | IC50 (HCT-15): 20.6 µM | IC50 (T47D): 19.4 µM | inhibition [4]: 54.6% | inhibition (Homo sapiens [5]): 14.6% | inhibition (Homo sapiens [6]): 83.2%

Clc1ccccc1-c1cc(-c2ccccc2)c2oc3ccccc3c2n1
fold change (FC) [1]: 0.38 | fold change (FC) (Homo sapiens [2]): 0.19 | IC50 (HeLa): 21.7 µM | fold change (FC) (Homo sapiens [3]): 0.88 | IC50 (HCT-15): 19.4 µM | IC50 (T47D): 19.5 µM | inhibition [4]: 33% | inhibition (Homo sapiens [5]): 6.9% | inhibition (Homo sapiens [6]): 58.2%

Clc1ccc(-c2cc(-c3ccc(Cl)o3)c3oc4ccccc4c3n2)cc1
fold change (FC) [1]: 0.81 | fold change (FC) (Homo sapiens [2]): 2.34 | IC50 (HeLa): 16.4 µM | fold change (FC) (Homo sapiens [3]): 1.91 | IC50 (HCT-15): > 50 µM | IC50 (T47D): 11.4 µM | inhibition [4]: 98.9% | inhibition (Homo sapiens [5]): 73.7% | inhibition (Homo sapiens [6]): 100%
